{"source": "patent US11369697B2", "about": "“Liposome nanoparticles for tumor magnetic resonance imaging” (UNITED KINGDOM RESEARCH AND INNOVATION, priority 2009, dated 2022)", "test": "T1 relaxation of Gd lipids in aqueous solution (MRI efficacy)", "assay_type": "physicochemical", "conditions": "0.5 mM, 4.7 T", "experimental": "In order to establish the relaxation properties of Gd.DOTA.DSA, MRI studies of the lipid in aqueous solution were performed and T1 values and relaxivity parameters generated in milliseconds. […] A standard T1 saturation recovery method (spin echo sequence) was used to determine T1 values (according to Eq. 1), where x is TR (time to repeat), and Si is the measured signal for a given TR. Si=S0(1−e^(−x/T^1^))\nMRI Analysis of Gd.DOTA.DSA For T1 analysis, Gd.DOTA.DSA 4, Gd.DTPA.BSA, and controls of the metal free compound, and Magnevist (Schering A G, Germany) were added to water to give a final concentration of 0.5 mM. The solutions (200 μL) were placed in eppendorf tubes and T1 relaxation values measured on a 4.7 T Varian MR scanner at ambient temperature. For relaxivity measurements; gadolinium liposome formulations were prepared in order to obtain five different gadolinium concentrations between […] in 200 μL of distilled water and the molar relaxivity r1 (mM^−1 s^−1) determined. T1 values were obtained using saturation recovery experiments performed with a standard spin-echo sequence and a 2 mm single slice acquisition (TR=50, 100, 200, 300, 500, 700, 1200, 3000, 5000, 7000 ms, TE=15 ms), number of signal averages; 2, FOV; 70×70 mm^2, collected into a matrix of 256×128.", "data": [{"substance": "Gadolinium (III) 2-{4,7-Bis-Carboxymethyl-10-[(N, N-Distearylamidomethyl-N′-Amido-Methyl]-1,4,7,10-Tetra-Azacyclododec-1-yl}-Acetic Acid [Gd.DOTA.DSA]", "values": [{"measurement": "T1 relaxation compared to Gd.DTPA.BSA lipid", "value": "comparable, if slightly better"}, {"measurement": "efficacy compared to Magnevist and Gd.DTPA.BSA (T1 values)", "setting": "lipid in aqueous solution, clinically relevant dose", "value": "compare favourably"}]}]}
